Reference: patent publication US20250332173A1, “COMPOUNDS AND METHODS FOR MODULATING NUCLEIC ACID SPLICING” (REMIX THERAPEUTICS INC., priority 2021, published 2025)
Like-named read-outs stand apart in the source and are kept apart here.

How the values were obtained:
HTT mRNA = assay: RT-qPCR splicing assay, HTT canonical junction (CJ) and alternative junction (AJ) mRNA; format: cell-based, human; settings: Homo sapiens; for AC50: increase in HTT alternative junction (AJ) mRNA, read-out: HTT AJ AC50
How it was run: (§1)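 Read-out is one-step RT-qPCR on cell lysates detecting the exon-exon junction of each isoform, normalized to a housekeeping gene (PPIA in A673, GAPDH or GUSB in K562).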

MYB mRNA = assay: RT-qPCR splicing assay, MYB canonical junction (CJ) and alternative junction (AJ) mRNA; format: cell-based, human; settings: Homo sapiens; for AC50: increase in MYB alternative junction (AJ) mRNA, read-out: MYB AJ AC50
How it was run: as §1

SMN2 mRNA = assay: RT-qPCR splicing assay, SMN2 canonical junction (CJ) mRNA; format: cell-based, human; settings: Homo sapiens; canonical junction qPCR panel, Table 5; read-out: SMN2 (decrease in CJ mRNA levels, IC50)
How it was run: (§2)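 Read-out is canonical exon-exon junction mRNA quantified by RT-qPCR against a GAPDH, GUSB or PPIA control. Cells (A673 or K562) received compound for 24 h, top final dose 10 uM in an 11-point 3-fold series.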

Target C = assay: RT-qPCR splicing assay panel, Target C canonical junction (CJ) mRNA; format: cell-based, human; settings: Homo sapiens; canonical junction qPCR panel, Table 5; read-out: Target C (decrease in CJ mRNA levels, IC50)
How it was run: as §2

[1] = tested on: K562 (human chronic myelogenous leukemia) cells; assay: Cell Titer Glo 2.0 cell viability assay; format: cell-based; settings: Homo sapiens, K562, 72 h, K562 cells, 72 hours, Cell Titer Glo 2.0; read-out: K562 GI50
[2] = decrease in HTT canonical junction (CJ) mRNA, RT-qPCR, read-out: HTT CJ IC50
[3] = canonical junction qPCR panel, Table 5, read-out: HTT (decrease in CJ mRNA levels, IC50)
[4] = canonical junction qPCR panel, Table 5, read-out: MYB (decrease in CJ mRNA levels, IC50)
[5] = decrease in MYB canonical junction (CJ) mRNA, RT-qPCR, read-out: MYB CJ IC50

| IC50 (HTT mRNA; [2]) [nM] | IC50 (HTT mRNA; [3]) [nM] | IC50 (MYB mRNA; [4]) [nM] | IC50 (MYB mRNA; [5]) [nM] | IC50 (SMN2 mRNA) [nM] | IC50 (Target C) [nM] | GI50 [1] [nM] | SMILES | AC50 (HTT mRNA; RT-qPCR) [nM] | AC50 (MYB mRNA; RT-qPCR) [nM] |
| --- | --- | --- | --- | --- | --- | --- | --- | --- | --- |
| 100 to 1000 | 100 to 1000 | < 100 | < 100 | < 100 | 100 to 1000 | < 100 | CNC12CCC(n3ccc4nc(-c5cc6cn(C)nc6c(C)c5O)ccc4c3=O)(CC1)C2 [Compound 1522] | 100 to 1000 | < 100 |
| 100 to 1000 | 100 to 1000 | < 100 | < 100 | < 100 | 100 to 1000 | 100 to 1000 | Cc1cn2cc(-c3nc(C)c4c(=O)n([C@H]5CCN[C@@H](C)C5)ccc4n3)cc(F)c2n1 [Compound 1501, 2-(8-fluoro-2-methyl-imidazo[1,2-a]pyridin-6-yl)-4-methyl-6-[(2S,4S)-2-methyl-4-piperidyl]pyrido[4,3-d]pyrimidin-5-one] | 100 to 1000 | < 100 |
| > 10000 | 1000 to 10000 | 100 to 1000 | 100 to 1000 | < 100 | 1000 to 10000 | 100 to 1000 | Cc1c(O)c(-c2ncc3c(=O)n([C@H]4CC[C@@H](N)C4)ccc3n2)cc2cn(C)nc12 [Compound 1473, 6-[(1S,3R)-3-aminocyclopentyl]-2-(6-hydroxy-2,7-dimethyl-indazol-5-yl)pyrido[4,3-d]pyrimidin-5-one] | 1000 to 10000 | 100 to 1000 |
| 1000 to 10000 | 1000 to 10000 | < 100 | 100 to 1000 | < 100 | 100 to 1000 | < 100 | Cc1cn2cc(-c3ncc4c(=O)n(C5C[C@H](C)N[C@@H](C)C5)ccc4n3)cc(F)c2n1 (stereo partly drawn) [Compound 1482, 6-[(2S,6S)-2,6-dimethyl-4-piperidyl]-2-(8-fluoro-2-methyl-imidazo[1,2-a]pyridin-6yl)pyrido[4,3-d]pyrimidin-5-one] | 1000 to 10000 | < 100 |
| 100 to 1000 | 100 to 1000 | < 100 | < 100 | < 100 | 100 to 1000 | 100 to 1000 | Cc1cn2cc(-c3ncc4c(=O)n([C@H]5CCN[C@@H](C)C5)ccc4n3)cc(F)c2n1 [Compound 1500, 2-(8-fluoro-2-methyl-imidazo[1,2-a]pyridin-6-yl)-6-[(2S,4S)-2-methyl-4-piperidyl]pyrido[4,3-d]pyrimidin-5-one] | 100 to 1000 | < 100 |
| 1000 to 10000 | 100 to 1000 | 100 to 1000 | 100 to 1000 | < 100 | 1000 to 10000 | 100 to 1000 | Cc1cn2cc(-c3ncc4c(=O)n([C@H]5CCNC(C)(C)C5)ccc4n3)cc(F)c2n1 [Compound 1497, 6-[(4S)-2,2-dimethyl-4-piperidyl]-2-(8-fluoro-2-methyl-imidazo[1,2-a]pyridin-6-yl)pyrido[4,3-d]pyrimidin-5-one] | 100 to 1000 | 100 to 1000 |
| 1000 to 10000 | 1000 to 10000 | 100 to 1000 | 100 to 1000 | < 100 | 1000 to 10000 | 100 to 1000 | Cc1cn2cc(-c3ccc4c(=O)n(C5C[C@H](C)N[C@@H](C)C5)ccc4n3)cc(F)c2n1 (stereo partly drawn) [Compound 1502, 6-[(2S,6S)-2,6-dimethyl-4-piperidyl]-2-(8-fluoro-2-methyl-imidazo[1,2-a]pyridin-6-yl)-1,6-naphthyridin-5-one] | 1000 to 10000 | 100 to 1000 |
| 100 to 1000 | 100 to 1000 | 100 to 1000 | < 100 | < 100 | 100 to 1000 | 100 to 1000 | Cc1cn2nc(-c3ccc4c(=O)n([C@H]5CCNC6(CCC6)C5)ccc4n3)cc(C)c2n1 [Compound 1518] | 100 to 1000 | 100 to 1000 |
| 1000 to 10000 | 100 to 1000 | 100 to 1000 | 1000 to 10000 | < 100 | 100 to 1000 | 100 to 1000 | Cc1cn2cc(-c3ncc4c(=O)n(C5C[C@@H](C)N[C@H](C)C5)ccc4n3)cc(F)c2n1 (stereo partly drawn) [Compound 1483, 6-[(2R,6R)-2,6-dimethyl-4-piperidyl]-2-(8-fluoro-2-methyl-imidazo[1,2-a]pyridin-6-yl)pyrido[4,3-d]pyrimidin-5-one] | 100 to 1000 | 100 to 1000 |
| 1000 to 10000 | 100 to 1000 | < 100 | 100 to 1000 | < 100 | 1000 to 10000 | < 100 | Cn1cc2cc(-c3ccc4c(=O)n(C56CCC(N)(CC5)C6)ccc4n3)c(O)cc2n1 [Compound 1481, 6-(4-aminonorbornane-1-yl)-2-(6-hydroxy-2-methyl-indazol-5-yl)-1,6-naphthyridin-5-one] | 100 to 1000 | < 100 |
| 1000 to 10000 | 100 to 1000 | 1000 to 10000 | 1000 to 10000 | 100 to 1000 | 1000 to 10000 | 1000 to 10000 | Cc1cn2nc(-c3ccc4c(=O)n(C5CCNC6(CC6)C5)ncc4n3)cc2c(C)n1 (stereo not drawn) [Compound 1547, 6-(4-azaspiro[2.5]octan-7-yl)-2-(4,6-dimethylpyrazolo[1,5-a]pyrazin-2-yl)pyrido[2,3-d]pyridazin-5-one] | 100 to 1000 | 1000 to 10000 |
| 100 to 1000 | 100 to 1000 | 100 to 1000 | 100 to 1000 | < 100 | 1000 to 10000 | 1000 to 10000 | Cc1cn2nc(-c3ccc4c(=O)n([C@@H]5CCNC6(CCC6)C5)ccc4n3)cc(C)c2n1 [Compound 1517] | 100 to 1000 | 100 to 1000 |
| 100 to 1000 | 100 to 1000 | 100 to 1000 | 100 to 1000 | < 100 | 100 to 1000 | 100 to 1000 | Cc1cn2cc(-c3nc(C)c4c(=O)n(C5CCNCC5)ccc4n3)cc(F)c2n1 [Compound 1491, 2-(8-fluoro-2-methyl-imidazo[1,2-a]pyridin-6-yl)-4-methyl-6-(4-piperidyl)pyrido[4,3-d]pyrimidin-5-one] | 100 to 1000 | 100 to 1000 |
| > 10000 | 1000 to 10000 | 1000 to 10000 | 1000 to 10000 | 100 to 1000 | 1000 to 10000 | 1000 to 10000 | Cc1cn2cc(-c3ccc4c(=O)n([C@@H]5CCN[C@H](C)C5)ccc4n3)cc(F)c2n1 [Compound 1475] | 1000 to 10000 | 1000 to 10000 |
| 1000 to 10000 | 1000 to 10000 | 100 to 1000 | 100 to 1000 | < 100 | 1000 to 10000 | 100 to 1000 | C[C@H]1C[C@@H](n2ccc3nc(-c4cc5cn(C)nc5cc4O)ncc3c2=O)CCN1 [Compound 1493, 2-(6-hydroxy-2-methyl-indazol-5-yl)-6-[(2S,4S)-2-methyl-4-piperidyl]pyrido[4,3-d]pyrimidin-5-one] | 1000 to 10000 | 100 to 1000 |
| 1000 to 10000 | 1000 to 10000 | 100 to 1000 | 100 to 1000 | < 100 | 1000 to 10000 | 100 to 1000 | Cc1cn2cc(-c3ccc4c(=O)n(C56CCC(N)(CC5)C6)ccc4n3)cc(F)c2n1 [Compound 1492] | 1000 to 10000 | 100 to 1000 |
| 100 to 1000 | 100 to 1000 | 100 to 1000 | 100 to 1000 | 100 to 1000 | 100 to 1000 | 100 to 1000 | Cc1cn2nc(-c3ccc4c(=O)n([C@H]5CCNC6(CCC6)C5)ncc4n3)cc(C)c2n1 [Compound 1544, 6-[(8S)-5-azaspiro[3.5]nonan-8-yl]-2-(2,8-dimethylimidazo[1,2-b]pyridazin-6-yl)pyrido[2,3-d]pyridazin-5-one] | 100 to 1000 | 100 to 1000 |
| 1000 to 10000 | 100 to 1000 | < 100 | 100 to 1000 | < 100 | 1000 to 10000 | < 100 | Cc1c(O)c(-c2ccc3c(=O)n(C45CCC(N)(CC4)C5)ccc3n2)cc2cn(C)nc12 [Compound 1486] | 100 to 1000 | < 100 |
| 1000 to 10000 | 100 to 1000 | 100 to 1000 | 100 to 1000 | < 100 | 1000 to 10000 | 100 to 1000 | Cc1cn2cc(-c3ncc4c(=O)n([C@@H]5CCNC(C)(C)C5)ccc4n3)cc(F)c2n1 [Compound 1496, 6-[(4R)-2,2-dimethyl-4-piperidyl]-2-(8-fluoro-2-methyl-imidazo[1,2-a]pyridin-6-yl)pyrido[4,3-d]pyrimidin-5-one] | 100 to 1000 | 100 to 1000 |

| SMILES | IC50 (HTT mRNA; [2]) [nM] | IC50 (HTT mRNA; [3]) [nM] | IC50 (MYB mRNA; [4]) [nM] | IC50 (MYB mRNA; [5]) [nM] | IC50 (SMN2 mRNA) [nM] | IC50 (Target C) [nM] | GI50 [1] [nM] | AC50 (HTT mRNA; RT-qPCR) [nM] | AC50 (MYB mRNA; RT-qPCR) [nM] |
| --- | --- | --- | --- | --- | --- | --- | --- | --- | --- |
| Cc1c(O)c(-c2ncc3c(=O)n([C@H]4C[C@H]5COC[C@@H](C4)N5)ccc3n2)cc2cn(C)nc12 [Compound 1472] | 1000 to 10000 | 1000 to 10000 | 100 to 1000 | 100 to 1000 | 100 to 1000 | 1000 to 10000 | 1000 to 10000 | 1000 to 10000 | 100 to 1000 |
